Laboratory results: PubChem BioAssay AID1259407 (Chemical Carcinogenesis Research Information System (CCRIS), 2018)
Calls of active or inactive are those of the source. How the calls were made is not given here.

Test system: CCRIS mutagenicity, Ames/micronucleus/aberration tests
Assay: CCRIS mutagenicity studies
[1] = Test System: AMES SALMONELLA TYPHIMURIUM, Strain/Indicator: TA98, Metabolic Activation: HAMSTER, LIVER, S-9, AROCLOR 1254, Method: PREINCUBATION
[2] = Test System: AMES SALMONELLA TYPHIMURIUM, Strain/Indicator: TA98, Metabolic Activation: NONE, Method: PREINCUBATION
[3] = Test System: AMES SALMONELLA TYPHIMURIUM, Strain/Indicator: TA98, Metabolic Activation: RAT, LIVER, S-9, AROCLOR 1254, Method: PREINCUBATION
[4] = Test System: AMES SALMONELLA TYPHIMURIUM, Strain/Indicator: TA100, Metabolic Activation: HAMSTER, LIVER, S-9, AROCLOR 1254, Method: PREINCUBATION
[5] = Test System: AMES SALMONELLA TYPHIMURIUM, Strain/Indicator: TA100, Metabolic Activation: NONE, Method: PREINCUBATION
[6] = Test System: AMES SALMONELLA TYPHIMURIUM, Strain/Indicator: TA100, Metabolic Activation: RAT, LIVER, S-9, AROCLOR 1254, Method: PREINCUBATION
[7] = Test System: AMES SALMONELLA TYPHIMURIUM, Strain/Indicator: TA1535, Metabolic Activation: HAMSTER, LIVER, S-9, AROCLOR 1254, Method: PREINCUBATION
[8] = Test System: AMES SALMONELLA TYPHIMURIUM, Strain/Indicator: TA1535, Metabolic Activation: NONE, Method: PREINCUBATION
[9] = Test System: AMES SALMONELLA TYPHIMURIUM, Strain/Indicator: TA1535, Metabolic Activation: RAT, LIVER, S-9, AROCLOR 1254, Method: PREINCUBATION
[10] = Test System: AMES SALMONELLA TYPHIMURIUM, Strain/Indicator: TA1537, Metabolic Activation: HAMSTER, LIVER, S-9, AROCLOR 1254, Method: PREINCUBATION
[11] = Test System: AMES SALMONELLA TYPHIMURIUM, Strain/Indicator: TA1537, Metabolic Activation: NONE, Method: PREINCUBATION
[12] = Test System: AMES SALMONELLA TYPHIMURIUM, Strain/Indicator: TA1537, Metabolic Activation: RAT, LIVER, S-9, AROCLOR 1254, Method: PREINCUBATION

CC(=O)OC1CC(C)OC(C)O1 (configuration not stated)
mutagenic call [1]: inactive; negative | mutagenic call [2]: inactive; negative | mutagenic call [3]: inactive; negative | mutagenic call [4]: active; positive | mutagenic call [5]: inactive; negative | mutagenic call [6]: active; positive | mutagenic call [7]: inactive; negative | mutagenic call [8]: inactive; negative | mutagenic call [9]: inactive; negative | mutagenic call [10]: inactive; negative | mutagenic call [11]: inactive; negative | mutagenic call [12]: inactive; negative

Clc1c(Cl)c(Br)c2c(c1Cl)-c1nc-2nc2[n-]c(nc3nc(nc4[n-]c(n1)c1c(Cl)c(Br)c(Cl)c(Br)c41)-c1c(Cl)c(Cl)c(Br)c(Cl)c1-3)c1c(Br)c(Cl)c(Br)c(Cl)c21.[Cu+2]
mutagenic call (Test System: AMES SALMONELLA TYPHIMURIUM, Strain/Indicator: TA98, Metabolic Activation: HAMSTER, LIVER, S-9, AROCLOR 1254 (10%), Method: PREINCUBATION): active; positive | mutagenic call [2]: inactive; negative | mutagenic call (Test System: AMES SALMONELLA TYPHIMURIUM, Strain/Indicator: TA98, Metabolic Activation: RAT, LIVER, S-9, AROCLOR 1254 (10%), Method: PREINCUBATION): active; positive | mutagenic call (Test System: AMES SALMONELLA TYPHIMURIUM, Strain/Indicator: TA100, Metabolic Activation: HAMSTER, LIVER, S-9, AROCLOR 1254 (10%), Method: PREINCUBATION): inactive; negative | mutagenic call [5]: inactive; negative | mutagenic call (Test System: AMES SALMONELLA TYPHIMURIUM, Strain/Indicator: TA100, Metabolic Activation: RAT, LIVER, S-9, AROCLOR 1254 (10%), Method: PREINCUBATION): inactive; negative | mutagenic call (Test System: AMES SALMONELLA TYPHIMURIUM, Strain/Indicator: TA1535, Metabolic Activation: HAMSTER, LIVER, S-9, AROCLOR 1254 (10%), Method: PREINCUBATION): inactive; negative | mutagenic call [8]: inactive; negative | mutagenic call (Test System: AMES SALMONELLA TYPHIMURIUM, Strain/Indicator: TA1535, Metabolic Activation: RAT, LIVER, S-9, AROCLOR 1254 (10%), Method: PREINCUBATION): inactive; negative | mutagenic call (Test System: AMES SALMONELLA TYPHIMURIUM, Strain/Indicator: TA1537, Metabolic Activation: HAMSTER, LIVER, S-9, AROCLOR 1254 (10%), Method: PREINCUBATION): inactive; negative | mutagenic call [11]: inactive; negative | mutagenic call (Test System: AMES SALMONELLA TYPHIMURIUM, Strain/Indicator: TA1537, Metabolic Activation: RAT, LIVER, S-9, AROCLOR 1254 (10%), Method: PREINCUBATION): active; positive

Cc1nnc(NS(=O)(=O)c2ccc(N)cc2)s1
mutagenic call (Test System: AMES SALMONELLA TYPHIMURIUM, Strain/Indicator: TA98, Metabolic Activation: HAMSTER, LIVER, S-9, AROCLOR 1254, Method: STANDARD PLATE): inactive; negative | mutagenic call (Test System: AMES SALMONELLA TYPHIMURIUM, Strain/Indicator: TA98, Metabolic Activation: NONE, Method: STANDARD PLATE): inactive; negative | mutagenic call (Test System: AMES SALMONELLA TYPHIMURIUM, Strain/Indicator: TA98, Metabolic Activation: RAT, LIVER, S-9, AROCLOR 1254, Method: STANDARD PLATE): inactive; negative | mutagenic call (Test System: AMES SALMONELLA TYPHIMURIUM, Strain/Indicator: TA100, Metabolic Activation: HAMSTER, LIVER, S-9, AROCLOR 1254, Method: STANDARD PLATE): inactive; negative | mutagenic call (Test System: AMES SALMONELLA TYPHIMURIUM, Strain/Indicator: TA100, Metabolic Activation: NONE, Method: STANDARD PLATE): inactive; negative | mutagenic call (Test System: AMES SALMONELLA TYPHIMURIUM, Strain/Indicator: TA100, Metabolic Activation: RAT, LIVER, S-9, AROCLOR 1254, Method: STANDARD PLATE): inactive; negative | mutagenic call (Test System: AMES SALMONELLA TYPHIMURIUM, Strain/Indicator: TA1535, Metabolic Activation: HAMSTER, LIVER, S-9, AROCLOR 1254, Method: STANDARD PLATE): inactive; negative | mutagenic call (Test System: AMES SALMONELLA TYPHIMURIUM, Strain/Indicator: TA1535, Metabolic Activation: NONE, Method: STANDARD PLATE): inactive; negative | mutagenic call (Test System: AMES SALMONELLA TYPHIMURIUM, Strain/Indicator: TA1535, Metabolic Activation: RAT, LIVER, S-9, AROCLOR 1254, Method: STANDARD PLATE): inactive; negative | mutagenic call (Test System: AMES SALMONELLA TYPHIMURIUM, Strain/Indicator: TA1537, Metabolic Activation: HAMSTER, LIVER, S-9, AROCLOR 1254, Method: STANDARD PLATE): inactive; negative | mutagenic call (Test System: AMES SALMONELLA TYPHIMURIUM, Strain/Indicator: TA1537, Metabolic Activation: NONE, Method: STANDARD PLATE): inactive; negative | mutagenic call (Test System: AMES SALMONELLA TYPHIMURIUM, Strain/Indicator: TA1537, Metabolic Activation: RAT, LIVER, S-9, AROCLOR 1254, Method: STANDARD PLATE): inactive; negative | mutagenic call (Test System: AMES SALMONELLA TYPHIMURIUM, Strain/Indicator: TA1538, Metabolic Activation: HAMSTER, LIVER, S-9, AROCLOR 1254, Method: STANDARD PLATE): inactive; negative | mutagenic call (Test System: AMES SALMONELLA TYPHIMURIUM, Strain/Indicator: TA1538, Metabolic Activation: NONE, Method: STANDARD PLATE): inactive; negative | mutagenic call (Test System: AMES SALMONELLA TYPHIMURIUM, Strain/Indicator: TA1538, Metabolic Activation: RAT, LIVER, S-9, AROCLOR 1254, Method: STANDARD PLATE): inactive; negative | mutagenic call (Test System: MOUSE LYMPHOMA, Strain/Indicator: L5178Y (TK+/TK-), Metabolic Activation: NONE, Method: SUSPENSION/PLATE): inactive; negative. reevaluation of results: negative | mutagenic call (Test System: MOUSE LYMPHOMA, Strain/Indicator: L5178Y (TK+/TK-), Metabolic Activation: RAT, LIVER, S-9, AROCLOR 1254, Method: SUSPENSION/PLATE): inactive; negative. reevaluation of results: equivocal

c1ccc(-c2cccc(-c3ccccn3)n2)nc1
mutagenic call (Test System: AMES SALMONELLA TYPHIMURIUM, Strain/Indicator: TA97, Metabolic Activation: RAT, LIVER, S-9, PHENOBARBITAL, Method: STANDARD PLATE): active; positive | mutagenic call (Test System: AMES SALMONELLA TYPHIMURIUM, Strain/Indicator: TA98, Metabolic Activation: RAT, LIVER, S-9, PHENOBARBITAL, Method: STANDARD PLATE): inactive; negative | mutagenic call (Test System: AMES SALMONELLA TYPHIMURIUM, Strain/Indicator: TA100, Metabolic Activation: RAT, LIVER, S-9, PHENOBARBITAL, Method: STANDARD PLATE): active; positive | mutagenic call (Test System: AMES SALMONELLA TYPHIMURIUM, Strain/Indicator: TA1535, Metabolic Activation: RAT, LIVER, S-9, PHENOBARBITAL, Method: STANDARD PLATE): inactive; negative | mutagenic call (Test System: AMES SALMONELLA TYPHIMURIUM, Strain/Indicator: TA1537, Metabolic Activation: RAT, LIVER, S-9, PHENOBARBITAL, Method: STANDARD PLATE): inactive; negative | mutagenic call (Test System: AMES SALMONELLA TYPHIMURIUM, Strain/Indicator: TA1538, Metabolic Activation: RAT, LIVER, S-9, PHENOBARBITAL, Method: STANDARD PLATE): inactive; negative

O=C1CCCCC1
mutagenic call [1]: inactive; negative | mutagenic call [2]: inactive; negative | mutagenic call [3]: inactive; negative | mutagenic call [4]: inactive; negative | mutagenic call [5]: inactive; negative | mutagenic call [6]: inactive; negative | mutagenic call [7]: inactive; negative | mutagenic call [8]: inactive; negative | mutagenic call [9]: inactive; negative | mutagenic call [10]: inactive; negative | mutagenic call [11]: inactive; negative | mutagenic call [12]: inactive; negative | mutagenic call (Test System: Mouse lymphoma, Strain/Indicator: L5178Y (tk+/tk-), Metabolic Activation: None, Method: Suspension/plate): inactive; negative | mutagenic call (Test System: Mouse lymphoma, Strain/Indicator: L5178Y (tk+/tk-), Metabolic Activation: Rat, Liver, S-9, Aroclor 1254, Method: Suspension/plate): active; positive

COc1c(O)cc(Cl)cc1Cl
mutagenic call (Test System: CHINESE HAMSTER V-79, Strain/Indicator: V-79/6-THIOGUANINE, Metabolic Activation: NONE, Method: STANDARD PLATE): inactive; negative
